Assay results as given in patent US20250034216A1, “STEREOSELECTIVE COVALENT LIGANDS FOR ONCOGENIC AND IMMUNOLOGICAL PROTEINS” (The Scripps Research Institute, priority 2021, published 2025).

Assays:
XXYLT1_C10 = biological target: T1, XXYLT1_C10 (Homo sapiens, UniProt Q8NBI6); test: IA-DTB cysteine engagement; format: binding; conditions: 22Rv1 cells, 20 μM probe, 1 h, relative to DMSO
T1 construct: endogenous in cells; host or cells: 22Rv1
T1 sequence (Q8NBI6 1-393): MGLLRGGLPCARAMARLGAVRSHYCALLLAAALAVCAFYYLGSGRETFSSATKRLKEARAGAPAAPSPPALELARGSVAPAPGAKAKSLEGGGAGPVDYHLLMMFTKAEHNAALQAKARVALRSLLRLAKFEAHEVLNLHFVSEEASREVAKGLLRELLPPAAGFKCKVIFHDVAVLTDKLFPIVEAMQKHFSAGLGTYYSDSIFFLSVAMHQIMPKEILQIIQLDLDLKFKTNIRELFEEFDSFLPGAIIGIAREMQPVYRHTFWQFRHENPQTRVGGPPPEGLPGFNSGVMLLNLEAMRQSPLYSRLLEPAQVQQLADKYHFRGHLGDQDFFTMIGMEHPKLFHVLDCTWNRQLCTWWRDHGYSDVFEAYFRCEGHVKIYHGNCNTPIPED
Experimental: (§1) Sample preparation: Cells (adherent: 15 cm dishes, suspension: 2 million cells/mL) were treated with electrophilic probes in situ for indicated times and concentrations, washed with ice-cold PBS, and flash frozen in liquid nitrogen. Cell pellets were lysed by sonication (8 pulses, 40% power) in 500 μL ice-cold PBS supplemented with cOmplete protease inhibitors (1 tablet/10 mL of PBS). Whole cell lysates protein content was measured using a standard DC protein assay (Bio-Rad) and 500 μL (2 mg/mL protein content) were treated with 5 μL of 10 mM 1A-DTB (in DMSO) for 1 h at ambient temperature with occasional vortexing. Samples were methanol-chloroform precipitated with the addition of 500 μL ice-cold MeOH and 200 μL CHCl3, vortexed, and centrifuged (10 min, 10,000 g). Without disrupting the protein disk, both top and bottom layers were aspirated and the protein disk was washed with 1 mL ice-cold MeOH and centrifuged (10 min, 10,000 g). The pellets were allowed to air dry, and then re-suspended in 90 μL buffer (9 M urea, 10 mM DTT, 50 mM TEAB pH 8.5). Samples were reduced by heating at 65 C for 20 minutes and water bath sonicated as needed to resuspend the protein pellets, followed by alkylation via addition of 10 μL (500 mM) iodoacetamide and incubated at 37 C for 30 min with shaking. Samples were briefly centrifuged, and probe sonicated once more to ensure complete resuspension, and then diluted with 300 μL buffer (50 mM TEAB pH 8.5) to reach final concentration of 2 M urea. Trypsin (4 μL of 0.25 μg/μL in trypsin resuspension buffer with 25 mM CaCl2)) was added to each sample and digested at 37 C for 2 h to overnight. Digested samples were then diluted with 300 μL wash buffer (50 mM TEAB pH 8.5, 150 mM NaCl, 0.2% NP-40) containing streptavidin-agarose beads (50 μL of 50% slurry in wash buffer) and were rotated at room temperature for 2 hours. Enriched samples were pelleted by centrifugation (2000 g, 2 min) and transferred to BioSpin columns and washed (3×1 mL wash buffer, 3×1 mL PBS, 3×1 mL water). Enriched peptides were eluted by 300 μL 50% acetonitrile with 0.1% formic acid and eluate was evaporated to dryness via speedvac. IA-DTB labeled and enriched peptides were resuspended in 100 μL EPPS buffer (200 mM, pH 8.0) with 30% acetonitrile, vortexed, and water bath sonicated. Samples were TMT labeled with 3 μL of corresponding TMT tag (5 mg tag resuspended in 256 μL acetonitrile), vortexed, and incubated at room temperature for 1 hour. TMT labeling was quenched with the addition of hydroxylamine (5 μL 5% solution in H2O) and incubated for 15 minutes at room temperature. Samples were then acidified with 5 μL formic acid, combined and dried using a SpeedVac. Samples were desalted via Sep-Pak and then high pH fractionated.
(§2) Data processing: Cysteine engagement ratios (probe vs DMSO) were calculated for each peptide-spectra match by dividing each TMT reporter ion intensity by the average intensity for the channels corresponding to DMSO treatment. Peptide-spectra matches were then grouped based on protein ID and residue number (e.g., PSME1 C22), excluding peptides with summed reporter ion intensities for the DMSO channels <10,000, coefficient of variation for DMSO channels >0.5, and non-tryptic peptide sequences. TMT reporter ion intensities were normalized to the median summed signal intensity across channels.
(§3) Filtering of cysteine data: Replicates were combined based on cell line and treatment condition (probe, concentration, duration) by averaging cysteine engagement ratios across all experiments.

ATP9A_C31 = biological target: T2, ATP9A_C31 (Homo sapiens, UniProt O75110); test: IA-DTB cysteine engagement; format: binding; conditions: 22Rv1 cells, 20 μM probe, 1 h, relative to DMSO
T2 construct: endogenous in cells; host or cells: 22Rv1
T2 sequence (O75110 1-1047): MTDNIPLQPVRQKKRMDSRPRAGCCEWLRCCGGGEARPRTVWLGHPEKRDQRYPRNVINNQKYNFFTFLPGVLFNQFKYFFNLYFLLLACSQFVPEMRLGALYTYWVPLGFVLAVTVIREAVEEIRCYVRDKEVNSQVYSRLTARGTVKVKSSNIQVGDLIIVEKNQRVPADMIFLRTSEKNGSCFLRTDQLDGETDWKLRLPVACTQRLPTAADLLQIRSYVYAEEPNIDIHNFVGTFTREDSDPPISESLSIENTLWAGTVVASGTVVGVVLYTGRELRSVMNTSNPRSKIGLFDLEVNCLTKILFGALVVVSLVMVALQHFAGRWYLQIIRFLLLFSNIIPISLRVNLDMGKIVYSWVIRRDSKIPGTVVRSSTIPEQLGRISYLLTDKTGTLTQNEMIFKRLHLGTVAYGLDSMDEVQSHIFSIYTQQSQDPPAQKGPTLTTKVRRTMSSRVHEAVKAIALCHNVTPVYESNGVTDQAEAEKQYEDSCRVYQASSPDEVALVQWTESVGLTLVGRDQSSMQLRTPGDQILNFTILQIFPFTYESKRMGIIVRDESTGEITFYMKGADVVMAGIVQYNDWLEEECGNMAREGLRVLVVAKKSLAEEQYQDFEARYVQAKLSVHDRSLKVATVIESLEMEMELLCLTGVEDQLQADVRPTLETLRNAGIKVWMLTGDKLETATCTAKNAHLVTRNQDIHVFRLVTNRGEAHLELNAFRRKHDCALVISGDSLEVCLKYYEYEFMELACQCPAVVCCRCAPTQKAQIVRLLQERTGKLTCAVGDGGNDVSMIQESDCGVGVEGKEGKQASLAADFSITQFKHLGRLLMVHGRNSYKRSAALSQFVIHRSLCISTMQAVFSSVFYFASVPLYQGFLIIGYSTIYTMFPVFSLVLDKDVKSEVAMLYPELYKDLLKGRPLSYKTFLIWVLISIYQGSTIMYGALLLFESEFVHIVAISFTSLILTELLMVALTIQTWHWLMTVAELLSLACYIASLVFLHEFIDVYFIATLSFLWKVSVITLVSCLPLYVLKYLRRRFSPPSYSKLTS
Experimental: as §1, §2, §3

For `C=CC(=O)N1C[C@H](c2ccc(Br)cc2)[C@H]1C(=O)Nc1cccc2cccnc12` [MY-3A, (2S,3S)-1-acryloyl-3-(4-bromophenyl)-N-(quinolin-8-yl)azetidine-2-carboxamide], the “% engagement XXYLT1_C10” value (XXYLT1_C10) was 67% and the “% engagement ATP9A_C31” value (ATP9A_C31) was 73%.
With `C=CC(=O)N1C[C@@H](c2ccc(Br)cc2)[C@H]1C(=O)Nc1cccc2cccnc12` [MY-1A, (2S,3R)-1-acryloyl-3-(4-bromophenyl)-N-(quinolin-8-yl)azetidine-2-carboxamide] the “% engagement XXYLT1_C10” value (XXYLT1_C10) was 76.5% and the “% engagement ATP9A_C31” value (ATP9A_C31) was 84.5%.
With `C=CC(=O)N1C[C@H](c2ccc(Br)cc2)[C@@H]1C(=O)Nc1cccc2cccnc12` [MY-1B, (2R,3S)-1-acryloyl-3-(4-bromophenyl)-N-(quinolin-8-yl)azetidine-2-carboxamide] the “% engagement XXYLT1_C10” value (XXYLT1_C10) was 77% and the “% engagement ATP9A_C31” value (ATP9A_C31) was 79.5%.
For `C=CC(=O)N1C[C@H](c2ccc(Br)cc2)[C@H]1C(=O)Nc1cccc2cccnc12` [MY-3B, (2S,3S)-1-acryloyl-3-(4-bromophenyl)-N-(quinolin-8-yl)azetidine-2-carboxamide], the “% engagement XXYLT1_C10” value (XXYLT1_C10) was 93% and the “% engagement ATP9A_C31” value (ATP9A_C31) was 86.5%.
